Experiment: Absorbance at photostationary state (PSS) under simulated sunlight or 365 nm light
Assay type: physicochemical
Design: λ max: unit not given here
Settings: for Absorbance at PSS, 365 nm: 365 nm light source; for Absorbance at PSS, 365 nm / Absorbance at PSS, full / Absorbance at PSS, +UV / λ max: 2.0×10^−5 M in triglyme; for sensitivity index: ratio of PSS under 365 nm light to PSS under full spectrum light (without UV blocking film); for Absorbance at PSS, full: simulated sunlight (QSUN solar simulator), no UV blocking film; for Absorbance at PSS, +UV: simulated sunlight with UV blocking film (cutoff 370 nm); for λ max: wavelength of maximum absorbance in the visible range, ring-closed isoform
Procedure: Absorbance at a PSS for selected compounds was measured at 2.0×10^−5 M in triglyme in the absence (full) or presence (+UV) of a UV blocking film with a UV cutoff wavelength of 370 nm (10% transmission at 370 nm), using simulated sunlight (QSUN solar simulator) as a light source, or a 365 nm light source; these PSS are reported in Tables 1.5. […] “Switch” refers to the ability (yes or no) of the compound to be reversibly converted under photochromic and electrochromic conditions between a ring-open isomer and ring-closed isomer.
A sensitivity index (SI) is a ratio of the PSS under 365 nm light to the PSS under full spectrum light (without UV blocking film). SI is an indicator of the sensitivity of the compound to the composition of the incident light (a change in the ratio of UV and visible components)—photochemical ring-opening is induced by a portion of the visible light spectrum.
Photostationary State (PSS) UV/Vis spectra are obtained using an OceanOptics™ Spectrophotometer until absorption in the visible region of the spectrum stabilizes. A 2×10^−5M solution of compound in solvent is prepared, and photofaded using visible light until absorption in the visible region of the spectrum stabilizes. The sample is then irradiated with simulated sunlight (QSUN SS-150 Solar Simulator with xenon arc lamp) until the absorption spectrum stabilizes. To obtain PSS in the presence of a UV blocking film, a second sample is prepared and irradiated as described, with a UV blocking film inserted in the light path when irradiating.

| SMILES | Absorbance at PSS, 365 nm | sensitivity index | Absorbance at PSS, full | Absorbance at PSS, +UV | λ max |
| --- | --- | --- | --- | --- | --- |
| COc1ccc(-c2sc(-c3cc4ccccc4s3)cc2C2=C(c3cc(-c4cc5ccccc5s4)sc3-c3ccc(OC)cc3)C(F)(F)C(F)(F)C2(F)F)cc1 [S110, 2,2′-(4,4′-(perfluorocyclopent-1-ene-1,2-diyl)bis(5-(4-methoxyphenyl)thiophene-4,2-diyl))bis(benzo[b]thiophene)] | 0.414 | 1.20 | 0.346 | 0.221 | 653 |
| CC(C)(C)c1ccc(-c2cc(C3=C(c4cc(-c5ccc(C(C)(C)C)s5)sc4-c4ccc(OCCCO)cc4)C(F)(F)C(F)(F)C3(F)F)c(-c3ccc(OCCCO)cc3)s2)s1 [S111, 3,3′-(4,4′-(4,4′-(perfluorocyclopent-1-ene-1,2-diyl)bis(5′-tert-butyl-2,2′-bithiophene-5,4-diyl))bis(4,1-phenylene)bis(oxy))dipropan-1-ol] | 0.322 | 1.10 | 0.292 | 0.192 | 646 |
| CC(C)(C)c1ccc(-c2cc(C3=C(c4cc(-c5ccc(C(C)(C)C)s5)sc4-c4ccc(N5CCOCC5)cc4)C(F)(F)C(F)(F)C3(F)F)c(-c3ccc(N4CCOCC4)cc3)s2)s1 [S112, 4,4′-((4,4″-(perfluorocyclopent-1-ene-1,2-diyl)bis(5′-(tert-butyl)-[2,2′-bithiophene]-5,4-diyl))bis(4,1-phenylene))dimorpholine] | 0.318 | 1.14 | 0.278 | 0.246 | 663 |
| CC(C)(C)c1ccc(-c2cc(C3=C(c4cc(-c5ccc(C(C)(C)C)s5)sc4-c4ccc(O[Si](O[Si](C)(C)C)(O[Si](C)(C)C)O[Si](C)(C)C)cc4)C(F)(F)C(F)(F)C3(F)F)c(-c3ccc(O[Si](O[Si](C)(C)C)(O[Si](C)(C)C)O[Si](C)(C)C)cc3)s2)s1 [S118] | 0.34 | 1.52 | 0.223 | 0.124 | 648 |
| CC(C)(C)c1ccc(-c2cc(C3=C(c4cc(-c5ccc(C(C)(C)C)s5)sc4-c4ccc(C(=O)O)s4)C(F)(F)C(F)(F)C3(F)F)c(-c3ccc(C(=O)O)s3)s2)s1 [S119] | 0.405 |  | 0.343 | 0.295 |  |
| CC(C)(C)c1ccc(-c2cc(C3=C(c4cc(-c5sc(C(C)(C)C)cc5C(=O)O)sc4-c4ccc(C(=O)O)s4)C(F)(F)C(F)(F)C3(F)F)c(-c3ccc(C(=O)O)s3)s2)s1 [S124] | 0.344 | 1.38 | 0.249 | 0.225 | 649 |
| C[Si](C)(C)c1ccc(-c2cc(C3=C(c4cc(-c5ccc([Si](C)(C)C)s5)sc4-c4ccc([Si](C)(C)C)s4)C(F)(F)C(F)(F)C3(F)F)c(-c3ccc([Si](C)(C)C)s3)s2)s1 [S135, 3′,3″″-(perfluorocyclopent-1-ene-1,2-diyl)bis(5,5″-bis(trimethylsilyl)-2,2′:5′,2″-terthiophene)] | 0.387 | 1.22 | 0.318 | 0.224 | 648 |
| Cc1ccc(-c2oc3ccccc3c2C2=C(c3c(-c4ccc(C)s4)oc4ccccc34)C(F)(F)C(F)(F)C2(F)F)s1 [S137, 3,3′-(perfluorocyclopent-1-ene-1,2-diyl)bis(2-(5-methylthiophen-2-yl)benzofuran)] | 0.15 | 4.55 | 0.033 | 0.016 | 497 |
| CC(C)(C)c1ccc(-c2cc(C3=C(c4cc(-c5ccc(C(C)(C)C)s5)sc4-c4ccc(OCCCCC#N)cc4)C(F)(F)C(F)(F)C3(F)F)c(-c3ccc(OCCCCC#N)cc3)s2)s1 [S139, 5,5′-(((4,4″-(perfluorocyclopent-1-ene-1,2-diyl)bis(5′-(tert-butyl)-[2″,2″′-bithiophene]-5″,4-diyl))bis(4,1phenylene))bis(oxy))dipentanenitrile] | 0.403 |  | 0.322 | 0.216 |  |
| COc1ccc(-c2oc3cc(OC)ccc3c2C2=C(c3c(-c4ccc(OC)cc4)oc4cc(OC)ccc34)C(F)(F)C(F)(F)C2(F)F)cc1 [S140, 3,3′-(perfluorocyclopent-1-ene-1,2-diyl)bis(6-methoxy-2-(4-methoxyphenyl)benzofuran)] | 0.276 | 4.25 | 0.065 | 0.032 | 516 |
| CC(C)(C)c1ccc(-c2cc(C3=C(c4cc(-c5ccc(C(C)(C)C)s5)sc4-c4ccc(OCCCCC(=O)O)cc4)C(F)(F)C(F)(F)C3(F)F)c(-c3ccc(OCCCCC(=O)O)cc3)s2)s1 [S141, 5,5′-(4,4′-(4,4′-(perfluorocyclopent-1-ene-1,2-diyl)bis(5′-tert-butyl-2,2′-bithiophene-5,4-diyl))bis(4,1-phenylene)bis(oxy))dipentanoic acid] | 0.377 |  | 0.282 | 0.183 |  |
| COc1ccc2c(C3=C(c4c(-c5ccc(C)s5)oc5cc(OC)ccc45)C(F)(F)C(F)(F)C3(F)F)c(-c3ccc(C)s3)oc2c1 [S144, 3,3′-(perfluorocyclopent-1-ene-1,2-diyl)bis(6-methoxy-2-(5-methylthiophen-2-yl)benzofuran)] | 0.318 | 3.88 | 0.082 | 0.04 | 513 |
| Cc1cc(-c2sc(-c3sc(C)c(C)c3C)cc2C2=C(c3cc(-c4sc(C)c(C)c4C)sc3-c3cc(C)c(C)s3)C(F)(F)C(F)(F)C2(F)F)sc1C [S148, 4′,4″″-(perfluorocyclopent-1-ene-1,2-diyl)bis(3,4,4″,5,5″-pentamethyl-2,2′:5′,2″-terthiophene)] | 0.244 | 1.63 | 0.15 | 0.092 | 650 |
| Cc1csc(-c2cc(C3=C(c4cc(-c5cc(C)cs5)sc4-c4cc(C)cs4)C(F)(F)C(F)(F)C3(F)F)c(-c3cc(C)cs3)s2)c1 [S149, 3′,3″″-(perfluorocyclopent-1-ene-1,2-diyl)bis(4,4″-dimethyl-2,2′:5′,2″-terthiophene)] | 0.339 | 1.41 | 0.241 | 0.169 | 647 |
| COc1ccc2c(C3=C(c4c(-c5ccc(C(C)(C)C)cc5)oc5cc(OC)ccc45)C(F)(F)C(F)(F)C3(F)F)c(-c3ccc(C(C)(C)C)cc3)oc2c1 [S151, 3,3′-(perfluorocyclopent-1-ene-1,2-diyl)bis(2-(4-(tert-butyl)phenyl)-6-methoxybenzofuran)] | 0.403 | 3.80 | 0.106 | 0.056 | 514 |
| COc1ccc2c(C3=C(c4c(-c5ccc(-c6ccc(C(C)(C)C)s6)s5)oc5cc(OC)ccc45)C(F)(F)C(F)(F)C3(F)F)c(-c3ccc(-c4ccc(C(C)(C)C)s4)s3)oc2c1 [S152, 3,3′-(perfluorocyclopent-1-ene-1,2-diyl)bis(2-(5′-(tert-butyl)-[2,2′-bithiophen]-5-yl)-6-methoxybenzofuran)] | 0.263 | 3.81 | 0.069 | 0.06 | 522 |
| COc1ccc2c(C3=C(c4c(-c5ccc(OC)c(OC)c5)oc5cc(OC)ccc45)C(F)(F)C(F)(F)C3(F)F)c(-c3ccc(OC)c(OC)c3)oc2c1 [S155, 3,3′-(perfluorocyclopent-1-ene-1,2-diyl)bis(2-(3,4-dimethoxyphenyl)-6-methoxybenzofuran)] | 0.329 | 4.06 | 0.081 | 0.045 | 516 |
| CCOCCOCCOCCOc1ccc2c(C3=C(c4c(-c5ccc(C(C)(C)C)cc5)oc5cc(OCCOCCOCCOCC)ccc45)C(F)(F)C(F)(F)C3(F)F)c(-c3ccc(C(C)(C)C)cc3)oc2c1 [S161, 3,3′-(perfluorocyclopent-1-ene-1,2-diyl)bis(2-(4-(tert-butyl)phenyl)-6-(2-(2-(2-ethoxyethoxy)ethoxy)ethoxy)benzofuran)] | 0.455 | 3.73 | 0.122 | 0.06 | 511 |
| CC(C)(C)c1ccc(-c2oc3cc(O)ccc3c2C2=C(c3c(-c4ccc(C(C)(C)C)cc4)oc4cc(O)ccc34)C(F)(F)C(F)(F)C2(F)F)cc1 [S162, 3,3′-(perfluorocyclopent-1-ene-1,2-diyl)bis(2-(4-(tert-butyl)phenyl)benzofuran-6-ol)] | 0.398 | 3.34 | 0.119 | 0.06 | 520 |

Reference: patent publication US10072023B2, “Diarylethene compounds and uses thereof” (SWITCH MATERIALS, INC., priority 2011, dated 2018)
